Source: US20070020234A1, “Inhibition of tumor angiogenesis by combination of thrombospondin-1 and inhibitors of vascular endothelial growth factor” (priority 2003, published 2007)
Entries after “also recorded” stand apart in the source; their conditions may differ.

Columns and labels:
[1] = test system: TSP-1 expression; assay: Northern blot of TSP-1 expression; type: cell-based, human; details: for TSP-1 expression relative to basal level after inhibitor treatment: MDA-MB-231 cells (FIG. 2B/2); for TSP-1 expression in the absence of HGF/SF induction: inhibitor 24 hours, LF at 1, 3 or 9 μg/ml (FIG. 2D); for HGF/SF-induced shut off (down-regulation) of TSP-1: SK-LMS-1 and MDA-MB-231 cells, inhibitor followed by HGF/SF for 24 hours
Protocol: (§1) FIG. 1A-1C. HGF/SF up-regulates VEGF and down-regulates TSP-1 expression in SK-LMS-1 cells (FIG. 1A) and MDA-MB-231 cells (FIG. 1B) and HUVEC cells (FIG. 1C). Total RNAs were prepared from SK-LMS-1 cells, MDA-MB-231 cells or HUVEC with or without treatment of recombinant human HGF/SF (200 units/ml) at the indicated time points after stimulation. Total RNAs were also prepared from the SK/HGF cell line, a long-term culture derivative of SK-LMS-1 cells that is autocrine for human HGF/SF (15). Northern Blot was probed with ^32P-radiolabeled TSP-1, VEGF or G3PDH cDNA fragment, respectively. For HUVEC, treatment of recombinant human HGF/SF (200 units/ml) was for 24 hours in the presence or absence of fetal bovine serum (FBS) and Northern Blot analyses were performed using ^32P-radiolabelled probe for human TSP-1, VEGF or GAPDH, respectively. TSP-1 expression in HUVEC cells was decreased in response to HGF/SF treatment. However, VEGF expression was undetectable with or without HGF/SF treatment.
(§2) FIG. 2A: HGF/SF induces activation of MAP kinase and PI3 kinase pathways in SK-LMS-1 cells and MDA-MB-231 cells. Serum-starved cells were treated with or without DMSO (control), PD98059 (80 μM), U0126 (40 μM) or LY294002 (40 μM) for 1 hour, followed by HGF/SF stimulation for 15 minutes (A time point good for observing all the tyrosine phosphorylation statuses). Whole cell extracts were prepared and the state of Met phosphorylation was detected by immunoprecipitation with anti-human Met antibody, followed by Western blot with anti-Phosphotyrosine (and/or anti-human Met antibody). For detection of Erk and Akt, Western blots were probed with anti-phospho p44/42 MAPK, anti-p44/42 MAPK, anti-phospho Akt (Ser473) or anti-Akt antibodies, respectively. FIG. 2B: Negative regulation of TSP-1 expression occurs primarily through the MAP kinase pathway, while positive regulation of VEGF expression occurs through MAP kinase and PI3 kinase pathway. Total RNAs were prepared from cells with or without inhibitor treatment and/or HGF/SF treatment. Northern Blot analyses were performed as described in FIG. 1A-caption. […] Up-regulation of VEGF was inhibited by PD98059, U0126 as well as LY294002. […]: VEGF but not TSP-1 expression was regulated by Stat3 signaling. Total RNAs were prepared from SK/HGF cells with or without overexpression of a dominant negative form of Stat3, Stat3 (17). […] FIG. 2D: LF increases TSP-1 and decreases VEGF expression in MDA-MB-231 human breast cancer cells. Cells were treated with or without indicated inhibitors for 24 hours and then total RNAs were prepared. Northern Blot analyses were performed using ^32P-radiolabelled probe for human TSP-1, VEGF or GAPDH, respectively.
(§3) VEGF was also elevated in long term cultures of SK-LMS-1 cells autocrine for HGF/SF (SK/HGF, 15) (FIG. 1A). […] This effect was seen as early as 6 hours after HGF treatment and continued to 48 hours. More dramatically, TSP-1 expression was eliminated in the SK/HGF cell line.
(§4) HGF/SF, acting through its tyrosine kinase receptor, Met, is known to activate several intracellular signaling pathways, including MAP kinase, PI3 kinase and Stat3 (1, 16). The present inventors asked which pathways might be involved in regulating VEGF and TSP-1 expression. The present inventors treated SK-LMS-1 and MDA-MB-231 cells with (or without) various inhibitors for one hour, followed by HGF/SF stimulation for 15 minutes (FIGS. 2A/1 and 2A/2). Met receptor is tyrosine-phosphorylated in response to HGF/SF, followed by the activation of downstream targets of Erk p44/42 MAPK) and Akt/PI3 kinase. […] RNA samples from SK-LMS-1 and MDA-MB-231 cells treated with individual inhibitors followed by HGF/SF treatment for 24 hours were analyzed by Northern Blot analyses. HGF/SF-induced shut off of TSP-1 was blocked by PD98059 or U0126 but was not affected by LY294002 (FIGS. 2B/1-2B/2), nor by overexpression of Stat3B, a dominant-negative form of Stat3 (FIG. 2C) (17). […]

[2] = test system: VEGF expression; assay: Northern blot of VEGF expression; type: cell-based, human; details: for VEGF expression in the absence of HGF/SF induction: inhibitor 24 hours, LF at 1, 3 or 9 μg/ml (FIG. 2D); for expression of VEGF induced by HGF/SF: inhibitor followed by HGF/SF for 24 hours; for VEGF expression (up-regulation by HGF/SF): SK-LMS-1 and MDA-MB-231 cells (FIGS. 2B/1, 2B/2); for VEGF expression after HGF/SF treatment: HGF/SF 200 units/ml
Protocol: as §1, §2, §3, §4

[3] = test system: Erk (p44/42 MAPK); assay: Western blot of Erk (p44/42 MAPK) activation after HGF/SF stimulation; type: cell-based, human; details: for constitutive level of MAP kinase activity: MDA-MB-231 cells (FIG. 2A/2); for activation of Erk in response to HGF/SF: SK-LMS-1 and MDA-MB-231 cells, inhibitor 1 hour (PD98059 80 μM, U0126 40 μM), then HGF/SF 15 minutes
Protocol: as §2
HGF/SF, acting through its tyrosine kinase receptor, Met, is known to activate several intracellular signaling pathways, including MAP kinase, PI3 kinase and Stat3 (1, 16). The present inventors asked which pathways might be involved in regulating VEGF and TSP-1 expression. The present inventors treated SK-LMS-1 and MDA-MB-231 cells with (or without) various inhibitors for one hour, followed by HGF/SF stimulation for 15 minutes (FIGS. 2A/1 and 2A/2). Met receptor is tyrosine-phosphorylated in response to HGF/SF, followed by the activation of downstream targets of Erk p44/42 MAPK) and Akt/PI3 kinase. […] RNA samples from SK-LMS-1 and MDA-MB-231 cells treated with individual inhibitors followed by HGF/SF treatment for 24 hours were analyzed by Northern Blot analyses. HGF/SF-induced shut off of TSP-1 was blocked by PD98059 or U0126 but was not affected by LY294002 (FIGS. 2B/1-2B/2), nor by overexpression of Stat3B, a dominant-negative form of Stat3 (FIG. 2C) (17). […] In MDA-MB-231 cells, the present inventors observed a dramatic effect from the MEK MAP kinase inhibitors on TSP-1 (FIG. 2B/2).

[4] = test system: SK/HGF tumor xenografts; assay: Subcutaneous tumor growth of SK/HGF-TSP1 versus SK/HGF cells in athymic nude mice; type: in vivo; details: TSP-1 overexpression in SK/HGF cells implanted subcutaneously in athymic nude mice; p<0.025
Text: FIG. 3A-3D. TSP-1 inhibits HGF/SF-induced tumor growth in vivo. FIG. 3A: TSP-1 was ectopically expressed in SK/HGF cells, establishing the SK/HGF-TSP 1 cell line. The expression of TSP-1 in SK/HGF-TSP1 cells was confirmed by Northern blot analysis. FIG. 3B: Tumor growth of SK-LMS cells and the influence of TSP-1 overexpression. SK-LMS-1 control cells, SK/HGF control cells and SK/HGF-TSP 1 cells (clone 26) were subcutaneously implanted in athymic nude mice, respectively. The animals were monitored for tumor growth and tumor volumes (Tvol) were measured twice a week. The Tvol values represent an average of four mice for each group (P<0.025). FIG. 3C: Visualization of the tumors at sacrifice. FIG. 3D: TSP-1 protein in tumor xenografts is derived from SK/HGF-TSP1 cells. Cell extracts were prepared from fresh tumors and TSP-1 protein was detected by anti-TSP-1 antibody under denatured condition.
TSP-1 was overexpressed in SK/HGF cells to generate SK/HGF-TSP1 cells (FIG. 3A). Overexpression of TSP-1 has no effect on cell proliferation or anchorage-independent growth compared the parental SK/HGF cells in vitro (FIGS. 5A-5B). To test whether TSP-1 influences tumorigenicity, the present inventors SK/HGF and SK/HGF-TSP1 cells were subcutaneously implanted in athymic nude mice, and their tumor growth rates were compared. […]

[5] = test system: tumor angiogenesis (CD31-positive vessels); assay: CD31 immunohistochemical staining of blood vessels in tumor sections; type: in vivo, athymic nude mice; details: SK/HGF-TSP1 versus SK/HGF tumors; P<0.01
Text: FIGS. 4A and 4B/1-4B/6 are a graph and photomicrographs showing that TSP-1 inhibits HGF/SF-induced tumor angiogenesis. […] Three fields (10× magnification) from each stained tumor section were photographed and the numbers of CD31-positive vessels (brown staining) were scored. The numbers represent the average number of blood vessels in sections from four tumors for each group (P<0.01).
To test whether the inhibition of tumor growth by TSP-1 was due to an extrinsic effect by preventing tumor angiogenesis, the present inventors performed immunohistochemical staining using antibodies against mouse endothelial cell surface marker CD31 to detect the number of blood vessels in SK/HGF and SK/HGF-TSP-1 tumor sections.

[6] = test system: SK/HGF cells; assay: Cell proliferation and anchorage-independent growth in vitro; type: cell-based, human; details: TSP-1 overexpression compared with parental SK/HGF cells in vitro
Text: FIGS. 5A and 5B are graphs showing that overexpression of TSP-1 has no effect on cell proliferation or anchorage-independent growth compared the parental SK/HGF cells in vitro.
TSP-1 was overexpressed in SK/HGF cells to generate SK/HGF-TSP1 cells (FIG. 3A). Overexpression of TSP-1 has no effect on cell proliferation or anchorage-independent growth compared the parental SK/HGF cells in vitro (FIGS. 5A-5B). To test whether TSP-1 influences tumorigenicity, the present inventors SK/HGF and SK/HGF-TSP1 cells were subcutaneously implanted in athymic nude mice, and their tumor growth rates were compared. At early times, no growth differences were observed between the SK/HGF and SK/HGF-TSP1 groups. However, when the tumors grew to a certain size, differences between became more apparent (Student's t test p<0.025). […] TSP-1 protein expression was confirmed in the SK/HGF-TSP1 tumor group by Western blot analysis (FIG. 3D).

[7] = test system: VEGF; details: cited from earlier work
[8] = HUVEC, HGF/SF 200 units/ml for 24 hours

Molecule | TSP-1 expression relative to basal level after inhibitor treatment [1] | TSP-1 expression in the absence of HGF/SF induction ([1]; MDA-MB-231 cells) | HGF/SF-induced shut off (down-regulation) of TSP-1 [1] | VEGF expression in the absence of HGF/SF induction ([2]; MDA-MB-231 cells) | expression of VEGF induced by HGF/SF ([2]; MDA-MB-231 cells) | VEGF expression (up-regulation by HGF/SF) [2] | expression of VEGF induced by HGF/SF ([2]; SK-LMS-1 cells) | constitutive level of MAP kinase activity [3] | activation of Erk in response to HGF/SF [3] | other results
COc1cccc(-c2cc(=O)c3ccccc3o2)c1N [PD98059] | higher than the basal level | up-regulation of TSP-1 | blocked; also recorded: inhibited | down-regulation of VEGF | suppressed | inhibited | only slightly | inhibited | blocked the activation of Erk | 
N#CC(=C(/N)Sc1ccccc1N)/C(C#N)=C(\N)Sc1ccccc1N [U0126] | higher than the basal level | up-regulation of TSP-1 | blocked; also recorded: inhibited | down-regulation of VEGF | suppressed | inhibited | only slightly | inhibited | blocked the activation of Erk | 
HGF/SF: recombinant human hepatocyte growth factor/scatter factor, ligand of the Met receptor |  |  |  |  |  |  |  |  |  | TSP-1 expression after HGF/SF treatment [1, 8]: decreased; TSP-1 expression after HGF/SF treatment ([1]; MDA-MB-231 cells, 24 and 48 hours after HGF treatment): down-regulation of TSP-1; TSP-1 expression after HGF/SF treatment ([1]; SK-LMS-1 cells, HGF/SF 200 units/ml, 6 to 48 hours): significant decrease in TSP-1 expression; VEGF expression with or without HGF/SF treatment [2, 8]: undetectable; VEGF expression after HGF/SF treatment ([2]; MDA-MB-231 cells, persisted for 48 hours): levels of VEGF increased; VEGF expression after HGF/SF treatment ([2]; SK-LMS-1 cells, up to 48 hours): induced VEGF
TSP-1: thrombospondin-1, angiogenesis antagonist; tested by ectopic overexpression in SK/HGF cells |  |  |  |  |  |  |  |  |  | HGF/SF-dependent tumor growth [4]: partially inhibited; neovascularization (number of CD31-positive vessels) in tumors [5]: Decreased neovascularization; cell proliferation or anchorage-independent growth [6]: no effect
VEGF-Trap: soluble decoy VEGF receptor fused to IgG; high-affinity VEGF blocker |  |  |  |  |  |  |  |  |  | tumor growth and vascularization in vivo ([7]; Holash et al.): effectively suppressed tumor growth and vascularization; vasculature in established xenografts ([7]; Huang et al., followed by tumor regression including lung micrometastases): abolished mature, preexisting vasculature
